*1 amine or outer side, *2 acyl side, *3 side chain or, on linkers, in order; H or OH if unused. Where a SMILES comes first, the peptide text is derived from it. Bridges are numbered along the chain shown (N, C = ends). [ ]: non-standard residue; d: D form. The star is where a group is joined. hPhe(3-Cl-4-CF3) = N[C@@H](CCc1ccc(C(F)(F)F)c(Cl)c1)C(=O)O; NPrPhe(4-CF3) = CCCN[C@@H](Cc1ccc(C(F)(F)F)cc1)C(=O)O; Pro(4-spirocPr) = O=C(O)[C@@H]1CC2(CC2)CN1; Abu(4,4,4-F3) = N[C@@H](CC(F)(F)F)C(=O)O; X2 = C[C@@H]1CN([*:1])[C@@H]1C(=O)[*:2]; NMeGly(cPent) = CN[C@H](C(=O)O)C1CCCC1; X9 = CC1(C)CN([*:1])[C@@H]1C(=O)[*:2]; Aze(3S-Me) = C[C@H]1CN[C@@H]1C(=O)O; Gly(cPent) = N[C@H](C(=O)O)C1CCCC1; NMeD = CN[C@@H](CC(=O)O)C(=O)O; NMeL = CN[C@@H](CC(C)C)C(=O)O; hPip = O=C(O)[C@@H]1CCCCCN1; Pip = O=C(O)[C@@H]1CCCCN1; Morpholide = C1CN(*)CCO1; Ac5c = NC1(C(=O)O)CCCC1; Aze = O=C(O)[C@@H]1CCN1; Abu = CC[C@H](N)C(=O)O; NEtG = CCNCC(=O)O; Sar = CNCC(=O)O
Assays:
[1] = molecular target: GDP-bound KRAS wild-type protein (Homo sapiens, UniProt P01116); assay: Binding to KRAS by surface plasmon resonance (SPR), dissociation constant KD; conditions: 1:1 binding model
GDP-bound KRAS wild-type protein, sequence (P01116 1-188 isoform P01116-2): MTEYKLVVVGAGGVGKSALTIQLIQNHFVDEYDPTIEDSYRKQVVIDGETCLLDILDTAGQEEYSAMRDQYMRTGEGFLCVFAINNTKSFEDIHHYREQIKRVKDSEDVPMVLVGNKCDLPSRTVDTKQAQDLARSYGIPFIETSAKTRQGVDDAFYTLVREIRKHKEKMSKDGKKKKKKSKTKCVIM
Description: Surface plasmon resonance was used to analyze the binding affinity of compounds for KRAS, NRAS, and HRAS. The apparatus used was Biacore 8K, 8K+, or T200 (GE Healthcare), and the running buffer used was HBS (10 mM HEPES-NaOH, 150 mM NaCl, pH 7.4) containing 1 mM DTT, 10 mM MgCl2, 0.01% Tween 20, 10 µM GDP, and 4% DMSO.
Biotinylated Avi-tag fusion KRAS, NRAS, and HRAS proteins were expressed in E. coli BL21 (DE3) strains, and after cells were homogenized, they were purified using Streptavidin Mutein Matrix and Superdex 75. After purification, GDP-loaded KRAS, NRAS, and HRAS proteins were immobilized on the surface of Sensor Chip CAP (Cytiva) coated with Biotin CAPture Reagent in an immobilization amount of about 100 to 300 RU. Binding of each compound was evaluated by the Single Cycle Kinetics method, and a running buffer or a compound solution was added to the RAS protein non-immobilized surface and the immobilized surface to obtain a binding response. The flow rate was set to 100 µL/min, and in the compound-adding cycle, compound solutions having different concentrations were intermittently added for 75 seconds each, starting from a low concentration. […] In the blank cycle, a running buffer was intermittently added and not the compound solution. The Biotin CAPture Reagent and RAS proteins were immobilized for each cycle, and at the end of each cycle, the sensor chip was regenerated by the regeneration solution appended to the Biotin CAPture Kit (Cytiva). Measurement was carried out at 30°C.
The resulting sensorgram was subjected to curve fitting based on a 1:1 binding model on Biacore Insight Evaluation Software or T200 Evaluation Software, and thereby the dissociation constant KD of each compound with respect to KRAS, NRAS, and HRAS was determined. […] Blank indicates a compound from which the KD value with respect to NRAS or HRAS was not obtained.

HRAS wild-type protein = HRAS wild-type protein (Homo sapiens, UniProt P01112); assay: Binding to HRAS by surface plasmon resonance (SPR), KD and KD ratio to KRAS; conditions: ratio of KD for HRAS wild-type protein to KD for KRAS
HRAS wild-type protein, sequence (P01112 whole entry): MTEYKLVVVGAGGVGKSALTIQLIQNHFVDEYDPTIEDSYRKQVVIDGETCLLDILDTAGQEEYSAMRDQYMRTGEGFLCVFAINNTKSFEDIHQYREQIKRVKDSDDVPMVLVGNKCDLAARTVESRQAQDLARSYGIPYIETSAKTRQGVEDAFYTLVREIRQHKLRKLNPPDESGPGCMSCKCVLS
Method in brief: (§1)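 Captured GDP-RAS (~100–300 RU) was exposed to increasing compound concentrations, 75 s per step, in running buffer with 10 µM GDP, 10 mM MgCl2 and 4% DMSO at pH 7.4.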

[2] = molecular target: GDP-bound NRAS wild-type protein (Homo sapiens, UniProt P01111); assay: Binding to NRAS by surface plasmon resonance (SPR), KD and KD ratio to KRAS; conditions: ratio of KD for GDP-bound NRAS wild-type protein to KD for KRAS
GDP-bound NRAS wild-type protein, sequence (P01111 whole entry): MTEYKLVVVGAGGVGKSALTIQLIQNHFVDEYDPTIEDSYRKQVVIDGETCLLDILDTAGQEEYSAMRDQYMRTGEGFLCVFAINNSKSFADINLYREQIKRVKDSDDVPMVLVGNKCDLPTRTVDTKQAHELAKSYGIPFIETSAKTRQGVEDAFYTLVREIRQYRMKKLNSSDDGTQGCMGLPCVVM
Method in brief: as §1

[3] = system: human lung cancer strain NCI-H441; type: cell-based
Method in brief: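 Step one: dispense the test compound in serial DMSO dilutions. Step three: add the reagent and measure […].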

Row | SMILES | Kd [1] | IC50 [3] | HRAS /KRAS (HRAS wild-type protein) | NRAS /KRAS [2]
1 | CCCN1C(=O)[C@@H]2CCN2C(=O)[C@H]2N(CC2(C)C)C(=O)[C@H]([C@@H](C)CC)NC(=O)[C@H](CC(C)C)N(C)C(=O)C[C@@H](C(=O)N2CCOCC2)N(C)C(=O)[C@H](C2CCCC2)N(C)C(=O)C2(CCCC2)NC(=O)[C@@H]2CCCN2C(=O)[C@H](CCc2ccc(C(F)(F)F)c(Cl)c2)NC(=O)CN(C)C(=O)[C@@H]1Cc1ccc(C(F)(F)F)cc1 [PP0277] ([NMeL]I[X9][Aze][NPrPhe(4-CF3)][Sar][hPhe(3-Cl-4-CF3)]P[Ac5c][NMeGly(cPent)][NMeD]-Morpholide; lactam N-11) | 0.53 nM | 6.7 nM | C (A compound having a KD ratio of 0.1 or more and less than 3 is denoted as C) | C (A compound having a KD ratio of 0.1 or more and less than 3 is denoted as C)
2 | CCCN1C(=O)CN(C)C(=O)CN(CC)C(=O)[C@H]([C@@H](C)CC)NC(=O)[C@H](CC(C)C)N(C)C(=O)C[C@@H](C(=O)N2CCOCC2)N(C)C(=O)[C@H](C2CCCC2)N(C)C(=O)C2(CCCC2)NC(=O)[C@@H]2CCCCN2C(=O)[C@H](CCc2ccc(C(F)(F)F)c(Cl)c2)NC(=O)CN(C)C(=O)[C@@H]1Cc1ccc(C(F)(F)F)cc1 [PP0297] ([NMeL]I[NEtG][Sar][NPrPhe(4-CF3)][Sar][hPhe(3-Cl-4-CF3)][Pip][Ac5c][NMeGly(cPent)][NMeD]-Morpholide; lactam N-11) | 2.3 nM | 74.3 nM | C (A compound having a KD ratio of 0.1 or more and less than 3 is denoted as C) | B (a compound having 3 or more and less than 10 is denoted as B)
3 | CCCN1C(=O)CN(C)C(=O)[C@@H]2CCN2C(=O)[C@H]([C@@H](C)CC)NC(=O)[C@@H]2CCCCCN2C(=O)C[C@@H](C(=O)N2CCOCC2)N(C)C(=O)[C@H](C2CCCC2)N(C)C(=O)C2(CCCC2)NC(=O)[C@@H]2CCCN2C(=O)[C@H](CCc2ccc(C(F)(F)F)c(Cl)c2)NC(=O)CN(C)C(=O)[C@@H]1Cc1ccc(C(F)(F)F)cc1 [PP0302] ([hPip]I[Aze][Sar][NPrPhe(4-CF3)][Sar][hPhe(3-Cl-4-CF3)]P[Ac5c][NMeGly(cPent)][NMeD]-Morpholide; lactam N-11) | 1.6 nM | 126 nM | C (A compound having a KD ratio of 0.1 or more and less than 3 is denoted as C) | B (a compound having 3 or more and less than 10 is denoted as B)
4 | CCCN1C(=O)CN(C)C(=O)[C@@H]2CCN2C(=O)[C@H]([C@@H](C)CC)NC(=O)[C@H](CC(C)C)N(C)C(=O)C[C@@H](C(=O)N2CCOCC2)N(C)C(=O)[C@H](C2CCCC2)N(C)C(=O)C2(CCCC2)NC(=O)[C@@H]2CC3(CC3)CN2C(=O)[C@H](CCc2ccc(C(F)(F)F)c(Cl)c2)NC(=O)CN(C)C(=O)[C@@H]1Cc1ccc(C(F)(F)F)cc1 [PP0308] ([NMeL]I[Aze][Sar][NPrPhe(4-CF3)][Sar][hPhe(3-Cl-4-CF3)][Pro(4-spirocPr)][Ac5c][NMeGly(cPent)][NMeD]-Morpholide; lactam N-11) | 1.1 nM | 56 nM | B (a compound having 3 or more and less than 10 is denoted as B) | B (a compound having 3 or more and less than 10 is denoted as B)

More lines, main results first:

Row | Kd [1] | IC50 [3] | SMILES | HRAS /KRAS (HRAS wild-type protein) | NRAS /KRAS [2]
5 | 1.4 nM | 30.8 nM | CCCN1C(=O)CN(C)C(=O)[C@@H]2[C@H](C)CN2C(=O)[C@H]([C@@H](C)CC)NC(=O)[C@H](CC(C)C)N(C)C(=O)C[C@@H](C(=O)N2CCOCC2)N(C)C(=O)[C@H](C2CCCC2)N(C)C(=O)C2(CCCC2)NC(=O)[C@@H]2CCCN2C(=O)[C@H](CCc2ccc(C(F)(F)F)c(Cl)c2)NC(=O)CN(C)C(=O)[C@@H]1Cc1ccc(C(F)(F)F)cc1 [PP0257] ([NMeL]I[X2][Sar][NPrPhe(4-CF3)][Sar][hPhe(3-Cl-4-CF3)]P[Ac5c][NMeGly(cPent)][NMeD]-Morpholide; lactam N-11) | B (a compound having 3 or more and less than 10 is denoted as B) | B (a compound having 3 or more and less than 10 is denoted as B)
6 | 0.52 nM | 11.3 nM | CCCN1C(=O)CN(C)C(=O)[C@@H]2[C@@H](C)CN2C(=O)[C@H]([C@@H](C)CC)NC(=O)[C@H](CC(C)C)N(C)C(=O)C[C@@H](C(=O)N2CCOCC2)N(C)C(=O)[C@H](C2CCCC2)N(C)C(=O)C2(CCCC2)NC(=O)[C@@H]2CCCN2C(=O)[C@H](CCc2ccc(C(F)(F)F)c(Cl)c2)NC(=O)CN(C)C(=O)[C@@H]1Cc1ccc(C(F)(F)F)cc1 [PP0258] ([NMeL]I[Aze(3S-Me)][Sar][NPrPhe(4-CF3)][Sar][hPhe(3-Cl-4-CF3)]P[Ac5c][NMeGly(cPent)][NMeD]-Morpholide; lactam N-11) | C (A compound having a KD ratio of 0.1 or more and less than 3 is denoted as C) | B (a compound having 3 or more and less than 10 is denoted as B)
7 | 4 nM | 349 nM | CCCN1C(=O)CN(C)C(=O)[C@@H]2CCN2C(=O)[C@H](CC)NC(=O)[C@H](CC(C)C)N(C)C(=O)C[C@@H](C(=O)N2CCOCC2)N(C)C(=O)[C@H](C2CCCC2)N(C)C(=O)C2(CCCC2)NC(=O)[C@@H]2CCCN2C(=O)[C@H](CCc2ccc(C(F)(F)F)c(Cl)c2)NC(=O)CN(C)C(=O)[C@@H]1Cc1ccc(C(F)(F)F)cc1 [PP0303] ([NMeL][Abu][Aze][Sar][NPrPhe(4-CF3)][Sar][hPhe(3-Cl-4-CF3)]P[Ac5c][NMeGly(cPent)][NMeD]-Morpholide; lactam N-11) | B (a compound having 3 or more and less than 10 is denoted as B) | B (a compound having 3 or more and less than 10 is denoted as B)
8 | 1.9 nM | 112 nM | CCCN1C(=O)CN(C)C(=O)[C@@H]2CCN2C(=O)[C@H](CC(F)(F)F)NC(=O)[C@H](CC(C)C)N(C)C(=O)C[C@@H](C(=O)N2CCOCC2)N(C)C(=O)[C@H](C2CCCC2)N(C)C(=O)C2(CCCC2)NC(=O)[C@@H]2CCCN2C(=O)[C@H](CCc2ccc(C(F)(F)F)c(Cl)c2)NC(=O)CN(C)C(=O)[C@@H]1Cc1ccc(C(F)(F)F)cc1 [PP0304] ([NMeL][Abu(4,4,4-F3)][Aze][Sar][NPrPhe(4-CF3)][Sar][hPhe(3-Cl-4-CF3)]P[Ac5c][NMeGly(cPent)][NMeD]-Morpholide; lactam N-11) | B (a compound having 3 or more and less than 10 is denoted as B) | B (a compound having 3 or more and less than 10 is denoted as B)
9 | 1.2 nM | 142 nM | CCCN1C(=O)CN(C)C(=O)[C@@H]2CCN2C(=O)[C@H](C2CCCC2)NC(=O)[C@H](CC(C)C)N(C)C(=O)C[C@@H](C(=O)N2CCOCC2)N(C)C(=O)[C@H](C2CCCC2)N(C)C(=O)C2(CCCC2)NC(=O)[C@@H]2CCCN2C(=O)[C@H](CCc2ccc(C(F)(F)F)c(Cl)c2)NC(=O)CN(C)C(=O)[C@@H]1Cc1ccc(C(F)(F)F)cc1 [PP0306] ([NMeL][Gly(cPent)][Aze][Sar][NPrPhe(4-CF3)][Sar][hPhe(3-Cl-4-CF3)]P[Ac5c][NMeGly(cPent)][NMeD]-Morpholide; lactam N-11) | B (a compound having 3 or more and less than 10 is denoted as B) | B (a compound having 3 or more and less than 10 is denoted as B)
10 | 2.1 nM | 205 nM | CCCN1C(=O)CN(C)C(=O)[C@@H]2CCN2C(=O)[C@H]([C@@H](C)CC)NC(=O)[C@H](CC(C)C)N(C)C(=O)C[C@@H](C(=O)N2CCOCC2)N(C)C(=O)[C@H](C2CCCC2)N(C)C(=O)C2(CCCC2)NC(=O)[C@@H]2CCN2C(=O)[C@H](CCc2ccc(C(F)(F)F)c(Cl)c2)NC(=O)CN(C)C(=O)[C@@H]1Cc1ccc(C(F)(F)F)cc1 [PP0307] ([NMeL]I[Aze][Sar][NPrPhe(4-CF3)][Sar][hPhe(3-Cl-4-CF3)][Aze][Ac5c][NMeGly(cPent)][NMeD]-Morpholide; lactam N-11) | B (a compound having 3 or more and less than 10 is denoted as B) | B (a compound having 3 or more and less than 10 is denoted as B)
